Measurements: patent US20240000806A1, “METHODS AND MATERIALS FOR INHIBITING CB1 ACTIVITY” (University of Pittsburgh - Of the Commonwealth System of …, priority 2020, published 2024)

molecular target: CB1 (CNR1) (Homo sapiens, UniProt P21554); assay: cAMP CNR1 Hunter cell line antagonist assay (CB1 assay); assay type: cell-based; conditions: antagonist mode, cAMP CNR1 Hunter cells, EC80 agonist; read-out: CB1 assay, Efficacy (IC50)
Procedure: cAMP CNR1 Hunter cell line (Eurofins DiscoveryX) were expanded from freezer stocks and seeded in a total volume of 20 μL into white walled, 384-well microplates and incubated at 37° C. for the appropriate time prior to testing. For antagonist determination, cell media was aspirated from cells and replaced with 10 μL 1:1 HBSS/Hepes:cAMP XS+Ab reagent. 5 μL of 4× compound was added to the cells and incubated at 37° C. for 30 minutes. 5 μL of 4× EC80 agonist was added to cells and incubated at 37° C. for 30 minutes. After appropriate compound incubation, assay signal was generated through incubation with 20 μL cAMP XS+ED/CL lysis cocktail for one hour followed by incubation with 20 μL cAMP XS+EA reagent for three hours at room temperature. Microplates were read following signal generation with a PerkinElmer Envision™ instrument for chemiluminescent signal detection. Compound activity (IC50) was analyzed using CBIS data analysis suite (ChemInnovation, CA).

Sequence of CB1 (CNR1) (P21554 whole entry): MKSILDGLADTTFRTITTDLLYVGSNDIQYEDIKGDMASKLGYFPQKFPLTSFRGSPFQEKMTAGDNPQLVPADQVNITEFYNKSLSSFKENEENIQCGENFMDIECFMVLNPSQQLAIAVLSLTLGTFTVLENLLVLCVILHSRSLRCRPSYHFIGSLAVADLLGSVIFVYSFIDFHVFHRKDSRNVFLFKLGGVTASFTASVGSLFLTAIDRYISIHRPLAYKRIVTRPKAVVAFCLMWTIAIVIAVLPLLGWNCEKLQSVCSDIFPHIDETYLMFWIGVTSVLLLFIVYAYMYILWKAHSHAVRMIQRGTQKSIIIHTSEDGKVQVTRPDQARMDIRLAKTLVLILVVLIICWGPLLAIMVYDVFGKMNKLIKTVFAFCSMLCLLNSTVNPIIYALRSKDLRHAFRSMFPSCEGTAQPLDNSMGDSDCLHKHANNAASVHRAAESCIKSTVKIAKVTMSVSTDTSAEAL

| IC50 | Structure (SMILES) |
| --- | --- |
| ≥ 25 µM | Cc1ccc(NS(=O)(=O)c2cc3c(cc2Cl)NC(=O)C(C)O3)cc1Cl (centres unmarked) [BC19708] |
| 1 to 25 µM | Cc1ccc(NS(=O)(=O)c2cc(Br)cc3c2OC(CC(C)C)C(=O)N3)cc1Cl (centres unmarked) [BC19767] |
| ≥ 25 µM | O=C1NCCOc2c1cc(Br)cc2S(=O)(=O)Nc1ccc(OC(F)(F)F)cc1 [BC19550] |
| ≥ 25 µM | CC(C)CC1Oc2c(cc(Br)cc2S(=O)(=O)Nc2ccc(C(C)C)cc2)NC1=O (centres unmarked) [BC19765] |
| 1 to 25 µM | CCNS(=O)(=O)c1cc(Cl)cc2c1OC(C)C(=O)N2 (centres unmarked) [BC19294] |
| 1 to 25 µM | COCCNC(=O)N1c2cc(S(=O)(=O)N3CCCC3)ccc2NC(=O)C1C (centres unmarked) [BC19299] |
| ≥ 25 µM | Cc1ccc(NS(=O)(=O)c2cc(Br)cc3c2OCCC(=O)N3)cc1Cl [BC19651] |
| ≥ 25 µM | COc1ccc(NS(=O)(=O)c2cc(Cl)cc3c2OC(C)C(=O)N3)cc1 (centres unmarked) [BC19707] |
| ≥ 25 µM | CCC1Oc2c(cc(Cl)cc2S(=O)(=O)Nc2ccc(F)cc2F)NC1=O (centres unmarked) [BC19748] |
| ≥ 25 µM | CC(C)CC1Oc2cc(S(=O)(=O)Nc3ccc(F)cc3Cl)c(Br)cc2NC1=O (centres unmarked) [BC19778] |
| 1 to 25 µM | CC1Oc2cc(S(=O)(=O)Nc3cccc(F)c3)c(Cl)cc2NC1=O (centres unmarked) [BC19713] |
| 1 to 25 µM | CCC1Oc2cc(S(=O)(=O)Nc3ccc(F)cc3F)c(Br)cc2N(C)C1=O (centres unmarked) [BC19914] |
| ≥ 25 µM | CCC1Oc2cc(S(=O)(=O)NCc3ccc(C(F)(F)F)cc3)c(Br)cc2NC1=O (centres unmarked) [BC19370] |
| 1 to 25 µM | CC1Oc2c(cc(Br)cc2S(=O)(=O)NCc2ccc(OC(F)(F)F)cc2)NC1=O (centres unmarked) [BC19363] |
| ≥ 25 µM | CCC1Oc2cc(S(=O)(=O)Nc3ccccc3)c(Br)cc2N(C)C1=O (centres unmarked) [BC19928] |
| 1 to 25 µM | CCc1cccc(NS(=O)(=O)c2cc3c(cc2Br)NC(=O)C(CC(C)C)O3)c1 (centres unmarked) [BC19772] |
| 1 to 25 µM | COc1ccc(NS(=O)(=O)c2cc3c(cc2Br)NC(=O)CCO3)cc1Cl [BC19694] |
| ≥ 25 µM | COc1ccc(NS(=O)(=O)c2cc(Br)cc3c2OC(CC(C)C)C(=O)N3)cc1Cl (centres unmarked) [BC19779] |
| ≥ 25 µM | CCc1ccc(NS(=O)(=O)c2cc3c(cc2Br)N(C)C(=O)C(CC)O3)cc1 (centres unmarked) [BC19932] |
| ≥ 25 µM | COc1ccc(NS(=O)(=O)c2cc(Br)cc3c2OCCNC3=O)cc1 [BC19606] |
| ≥ 25 µM | Cc1ccc(NS(=O)(=O)c2cc(Br)cc3c2OC(C)C(=O)N3C)cc1 (centres unmarked) [BC19906] |
| ≥ 25 µM | CCC1Oc2cc(S(=O)(=O)NCc3ccc(OC(F)(F)F)cc3)c(Br)cc2NC1=O (centres unmarked) [BC19369] |

| IC50 | Structure (SMILES) |
| --- | --- |
| ≥ 25 µM | CC1Oc2c(cc(Br)cc2S(=O)(=O)Nc2ccc(F)cc2Cl)NC1=O (centres unmarked) [BC19289] |
| < 1 µM | Cc1ccc(NS(=O)(=O)c2cc3c(cc2C)NC(=O)CO3)cc1 [BC19134] |
| ≥ 25 µM | CCS(=O)(=O)c1cc2c(c(S(=O)(=O)Nc3ccc(C)c(F)c3)c1)OCC(=O)N2 [BC19436] |
| 1 to 25 µM | CCC1Oc2c(cc(Cl)cc2S(=O)(=O)Nc2ccc(C)cc2)NC1=O (centres unmarked) [BC19754] |
| 1 to 25 µM | CCC1Oc2cc(S(=O)(=O)NC3CCCCC3)c(Br)cc2NC1=O (centres unmarked) [BC19223] |
| ≥ 25 µM | CS(=O)(=O)c1cc2c(c(S(=O)(=O)Nc3ccc(F)cc3Cl)c1)OCC(=O)N2 [BC19428] |
| ≥ 25 µM | CCC1Oc2cc(S(=O)(=O)Nc3cc(Cl)ccc3C)c(Cl)cc2NC1=O (centres unmarked) [BC19215] |
| 1 to 25 µM | CC(C)c1ccc(NS(=O)(=O)c2cc3c(cc2Br)NC(=O)CCO3)cc1 [BC19691] |
| ≥ 25 µM | CCS(=O)(=O)c1cc2c(c(S(=O)(=O)Nc3ccc(OC(F)(F)F)cc3)c1)OCC(=O)N2 [BC19435] |
| ≥ 25 µM | CC(C)CC1Oc2cc(S(=O)(=O)Nc3ccccc3)c(Br)cc2NC1=O (centres unmarked) [BC19762] |
| ≥ 25 µM | CC1Oc2cc(S(=O)(=O)Nc3ccc(OC(F)(F)F)cc3)c(Cl)cc2NC1=O (centres unmarked) [BC19354] |
| ≥ 25 µM | CCc1cccc(NS(=O)(=O)c2cc3c(cc2Br)N(C)C(=O)C(C)O3)c1 (centres unmarked) [BC19901] |
| ≥ 25 µM | O=C1COc2c(cc(Br)cc2S(=O)(=O)NCc2ccc(F)cc2F)N1 [BC19386] |
| ≥ 25 µM | O=C1COc2c(cc(Cl)cc2S(=O)(=O)Nc2ccc(OC(F)(F)F)cc2)N1 [BC19172] |
| ≥ 25 µM | CC1Nc2cc(S(=O)(=O)N3CCCC3)ccc2NC1=O (centres unmarked) [BC19235] |
| 1 to 25 µM | CC1Oc2cc(S(=O)(=O)Nc3ccc(Cl)cc3)c(Cl)cc2NC1=O (centres unmarked) [BC19696] |
| ≥ 25 µM | CC(C)CC1Oc2cc(S(=O)(=O)Nc3cccc(F)c3)c(Br)cc2NC1=O (centres unmarked) [BC19774] |
| ≥ 25 µM | CCS(=O)(=O)c1cc2c(c(S(=O)(=O)Nc3ccc(C(C)C)cc3)c1)OCC(=O)N2 [BC19493] |
| ≥ 25 µM | CCc1cccc(NS(=O)(=O)c2cc(Br)cc3c2OCC(=O)N3)c1 [BC19180] |
| ≥ 25 µM | Cc1ccc(NS(=O)(=O)c2c(C)c(Cl)cc3c2OCC(=O)N3)cc1Cl [BC19433] |
| 1 to 25 µM | CCC1Oc2c(cc(Br)cc2S(=O)(=O)Nc2ccc(F)cc2F)N(C)C1=O (centres unmarked) [BC19913] |
| ≥ 25 µM | CCS(=O)(=O)c1cc2c(c(S(=O)(=O)Nc3ccc(F)cc3Cl)c1)OCC(=O)N2 [BC19442] |

| IC50 | Structure (SMILES) |
| --- | --- |
| ≥ 25 µM | CC1Oc2c(cc(Br)cc2S(=O)(=O)NC2CCC(O)CC2)NC1=O (centres unmarked) [BC19366] |
| ≥ 25 µM | CC(C)CNS(=O)(=O)c1cc(Br)cc2c1OC(C)C(=O)N2 (centres unmarked) [BC19227] |
| 1 to 25 µM | CCC1Oc2c(cc(Cl)cc2S(=O)(=O)Nc2ccc(F)cc2)NC1=O (centres unmarked) [BC19732] |
| ≥ 25 µM | CCC1Oc2c(cc(Br)cc2S(=O)(=O)Nc2ccc(C)cc2)NC1=O (centres unmarked) [BC19234] |
| 1 to 25 µM | CC1Oc2cc(S(=O)(=O)Nc3ccc(F)cc3Cl)c(Cl)cc2NC1=O (centres unmarked) [BC19719] |
| 1 to 25 µM | CCOc1ccc(NS(=O)(=O)c2cc3c(cc2Br)NC(=O)CO3)cc1 [BC19135] |
| ≥ 25 µM | CS(=O)(=O)c1cc2c(c(S(=O)(=O)Nc3ccc(F)c(F)c3)c1)OCC(=O)N2 [BC19481] |
| ≥ 25 µM | CC1Oc2cc(S(=O)(=O)NC3CCC(O)CC3)c(Br)cc2NC1=O (centres unmarked) [BC19360] |
| < 1 µM | Cc1ccc(NS(=O)(=O)c2cc3c(cc2Br)NC(=O)CCO3)cc1 [BC19661] |
| < 1 µM | CCC1Oc2c(cc(Cl)cc2S(=O)(=O)Nc2ccccc2)NC1=O (centres unmarked) [BC19738] |
| 1 to 25 µM | CC(C)CC1Oc2c(cc(Br)cc2S(=O)(=O)Nc2ccc(F)cc2F)NC1=O (centres unmarked) [BC19769] |
| ≥ 25 µM | Cc1ccc(NS(=O)(=O)c2cc(Br)cc3c2OC(C)C(=O)N3C)cc1F (centres unmarked) [BC19785] |
| 1 to 25 µM | O=C1COc2c(cc(Br)cc2S(=O)(=O)NCc2ccc(C(F)(F)F)cc2)N1 [BC19382] |
| ≥ 25 µM | CCS(=O)(=O)c1cc2c(c(S(=O)(=O)Nc3ccccc3)c1)OCC(=O)N2 [BC19437] |
| 1 to 25 µM | CNC(=O)N1CC(=O)Nc2ccc(S(=O)(=O)N3CCCC3)cc21 [BC19183] |
| ≥ 25 µM | CC1Oc2cc(S(=O)(=O)N3CCCC3)c(Cl)cc2NC1=O (centres unmarked) [BC19208] |
| ≥ 25 µM | CCC1Oc2cc(S(=O)(=O)Nc3ccc(Cl)cc3)c(Br)cc2N(C)C1=O (centres unmarked) [BC19930] |
| ≥ 25 µM | CC1Oc2c(cc(Cl)cc2S(=O)(=O)Nc2ccc(OC(F)(F)F)cc2)NC1=O (centres unmarked) [BC19394] |
| ≥ 25 µM | CCS(=O)(=O)c1cc2c(c(S(=O)(=O)Nc3ccc(OC)c(Cl)c3)c1)OCC(=O)N2 [BC19547] |
| ≥ 25 µM | CC1Oc2c(cc(Br)cc2S(=O)(=O)Nc2ccc(F)cc2F)N(C)C1=O (centres unmarked) [BC19798] |
| ≥ 25 µM | CCC1Oc2c(cc(Br)cc2S(=O)(=O)Nc2ccccc2)N(C)C1=O (centres unmarked) [BC19927] |
| 1 to 25 µM | CC(C)CC1Oc2cc(S(=O)(=O)Nc3ccc(F)c(F)c3)c(Br)cc2NC1=O (centres unmarked) [BC19760] |

| IC50 | Structure (SMILES) |
| --- | --- |
| 1 to 25 µM | Cc1ccc(NS(=O)(=O)c2cc(Cl)cc3c2OC(C)C(=O)N3)cc1F (centres unmarked) [BC19701] |
| ≥ 25 µM | CS(=O)(=O)c1cc2c(c(S(=O)(=O)Nc3ccccc3)c1)OCC(=O)N2 [BC19482] |
| ≥ 25 µM | CCC1Oc2c(cc(Br)cc2S(=O)(=O)Nc2cccc(F)c2)NC1=O (centres unmarked) [BC19231] |
| ≥ 25 µM | CCc1ccc(NS(=O)(=O)c2cc(S(C)(=O)=O)cc3c2OCC(=O)N3)cc1 [BC19484] |
| < 1 µM | O=C1COc2cc(S(=O)(=O)Nc3ccc(F)cc3F)c(Br)cc2N1 [BC19166] |
| ≥ 25 µM | O=C1COc2cc(S(=O)(=O)NCc3ccc(F)cc3F)c(Br)cc2N1 [BC19393] |
| ≥ 25 µM | CC(=O)c1cccc(NS(=O)(=O)c2cc3c(cc2C)NC(=O)CO3)c1 [BC19132] |
| ≥ 25 µM | CC1Oc2cc(S(=O)(=O)Nc3ccc(F)c(F)c3)c(Cl)cc2NC1=O (centres unmarked) [BC19698] |
| ≥ 25 µM | O=C1COc2cc(S(=O)(=O)NCc3ccc(C(F)(F)F)cc3)c(Br)cc2N1 [BC19391] |
| ≥ 25 µM | CCCNS(=O)(=O)c1cc(Br)cc2c1OC(CC)C(=O)N2 (centres unmarked) [BC19229] |
| < 1 µM | O=C1COc2cc(S(=O)(=O)Nc3ccccc3)c(Cl)cc2N1 [BC19161] |
| < 1 µM | CCc1cccc(NS(=O)(=O)c2cc3c(cc2Br)NC(=O)CO3)c1 [BC19167] |
| < 1 µM | CC1Oc2cc(S(=O)(=O)Nc3cccc(Cl)c3)c(Cl)cc2NC1=O (centres unmarked) [BC19715] |
| ≥ 25 µM | CC(C)NS(=O)(=O)c1cc(Cl)cc2c1OC(C)C(=O)N2 (centres unmarked) [BC19293] |
| ≥ 25 µM | O=C1COc2c(cc(Br)cc2S(=O)(=O)NCCc2ccc(OC(F)(F)F)cc2)N1 [BC19383] |
| 1 to 25 µM | CCc1ccc(NS(=O)(=O)c2cc(Cl)cc3c2OC(CC)C(=O)N3)cc1 (centres unmarked) [BC19742] |
| ≥ 25 µM | CC(C)CC1Oc2c(cc(Br)cc2S(=O)(=O)Nc2ccc(F)cc2Cl)NC1=O (centres unmarked) [BC19777] |
| ≥ 25 µM | CCS(=O)(=O)c1cc2c(c(S(=O)(=O)Nc3ccc(C)c(Cl)c3)c1)OCC(=O)N2 [BC19544] |
| 1 to 25 µM | O=C1CCOc2cc(S(=O)(=O)Nc3ccc(F)cc3F)c(Br)cc2N1 [BC19693] |
| 1 to 25 µM | CCC1Oc2cc(S(=O)(=O)Nc3cccc(Cl)c3)c(Br)cc2NC1=O (centres unmarked) [BC19221] |
